From patent US20220249399A1, “COMPOSITION COMPRISING AN ANTI-OXIDANT TO PRESERVE CORNEAL TISSUE” (University of lowa Research Foundation, priority 2019, published 2022)
Entries after “also recorded” stand apart in the source; their conditions may differ. Marks after values point to notes of the source that are not given here.

Legend:
[1] = system: human donor corneal endothelial cells; test: Mitochondrial respiration assay (Seahorse XFe24 extracellular flux analyzer) of donor corneal endothelium after storage in supplemented Optisol GS; assay type: cell-based; details: for ATP Production, Mean (SD) / Maximal Respiration, Mean (SD) / Non-mitochondrial Respiration, Median [IQR] / Proton Leak, Mean (SD) / Spare Respiratory Capacity, Mean (SD) / Basal, Mean (SD): OCR per cell (pmole/min/cell)
Method: Human corneal tissue pairs were obtained by Iowa Lions Eye Bank (ILEB) from nondiabetic donors 60-75 years old and stored in Optisol GS (Bausch+Lomb, Irvine, Calif.) at 4° C. following procurement in accordance with Eye Bank Association of America and ILEB policies and procedures. For 5 days prior to testing, but within 9 days of procurement, one stored tissue from a corneal pair was treated with 10 μM CoQ10, while the mate tissue was treated with diluent only as a control. Descemet membrane and endothelial cell punches were collected and mounted onto the bottom of a Seahorse assay plate (cells facing upward). Mitochondrial respiration was assayed by measuring oxygen consumption using the Seahorse XFe24 Extracellular Flux Analyzer (Agilent Technologies, Santa Clara, Calif.) over 120 minutes (9-minute intervals). Punches were labeled with a nuclear counterstain (DAPI) and remaining tissues were mounted onto slides and labeled with 488A-Annexin V, Ethidium Homodimer III, and Hoechst 33342 (Apoptotic, Necrotic, and Healthy Cells Quantification Kit; Biotium, Fremont, Calif.) to assay cell health. Nuclei were counted in each punch to normalize respirometry data. Immunohistochemistry densitometry was measured using ImageJ software.
Human donor whole globe eye pairs were obtained by Iowa Lions Eye Bank (ILEB) and the anterior portion of the eyes were removed. For 14 days, one cornea was stored from a corneal pair treated with 1 mM ascorbate-2-phosphate, while the mate tissue was treated with diluent only as a control. Descemet membrane and endothelial cell punches were collected and mounted onto the bottom of a Seahorse assay plate (cells facing upward). Mitochondrial respiration was assayed by measuring oxygen consumption using the Seahorse XFe24 Extracellular Flux Analyzer (Agilent Technologies, Santa Clara, Calif.) over 120 minutes (9-minute intervals). Punches were labeled with a nuclear counterstain (DAPI) and nuclei were counted in each punch to normalize respirometry data. […]
Tissue preparation and extracellular flux assays for mitochondrial respiration were performed as described in Greiner et al. (2015). In brief, after pre-stripping the EDM, 3 mm diameter EDM punches were mounted in wells of a XF24 microplate (Agilent Technologies, Santa Clara, Calif.). After acclimation for one hour at 37° C. in non-buffered assay media, metabolic activity of the EDM samples was quantified using a commercial kit (XF Cell Mito Stress Test Kits; Agilent Technologies) on a Seahorse XFe24 extracellular flux analyzer (Agilent Technologies). Following extracellular flux analysis, tissues were labeled fluorescently using a 1:1000 Sytox Green nucleic acid stain in the microtiter plate (Life Technologies, Grand Island, N.Y.) and imaged on an Olympus IX-81 inverted microscope (Olympus America, Center Valley, Pa.) using a FITC filter. Cell counts were determined using Image J (https://imagej.nih.gov/ij/download.html) and used to compute the oxygen consumption rate per cell (OCR; pmole/min/cell). Raw OCR values were used to calculate several different key parameters of metabolic function per manufacturer's directions (Agilent Technologies), as in Aldrich et al. (2017). The parameters and calculations used in this study were the main outcome measures, including basal respiration, ATP-associated oxygen consumption, proton [H^+] leak, maximal respiration, spare respiratory capacity, non-mitochondrial respiration, and coupling efficiency as described in Schneider et al. and Goldstein et al. (2018).
Mitochondrial Respiration Assay: 3 mm punches of central and peripheral endothelium-Descemet membrane complex (EDM) were secured to the bottom of cell culture microplate wells or CECs were grown directly onto microplate.

[2] = system: A549 human lung cancer cells; test: ROS assay, dihydroethidium (DHE) fluorescence by flow cytometry, with or without antimycin A; assay type: cell-based; details: for ROS levels (DHE fluorescence) with antimycin A (AM): AM as ROS inducer, p<0.05
Method: A549 human lung cancer cells were seeded in 6-well plates at 200,000 cells/well for 40 hours, then the medium was removed, and treatments were added. Ubiquinol (coQ10) was dispersed in RPMI medium at three different concentrations (100, 50, and 10 μM) and added to wells (n=3 each), then the volume of each well was completed to 4 ml with medium. Ubiquinol-γ-cyclodextrin (1:10 molar ratio) complex dispersed in RPMI at three different concentrations (equivalent to 100, 50, and 10 μM of ubiquinol) and added to wells (n=3/each) and the volume of the each well was completed to 4 ml with medium._γ-cyclodextrin was added in amounts equivalent to those associated with 100, 50, and 10 μM of the complex to each well (n=3/each) and the volume of the each well was completed to 4 ml with medium._Six wells were left untreated._After 24 h, media were removed, and wells were washed with 5 mM sodium pyruvate in PBS, trypsinized, then collected in 15 ml tubes by centrifugation. Cells were washed with 5 mM sodium pyruvate in PBS, then re-suspended in 1 ml of the same solution._The reagents were added as described in FIG. 14, then incubated at 40 min._Cells were re-suspended and transferred to round-bottom tubes, and analyzed by flow Cytometry.

[3] = 10 μM CoQ10 (ubiquinol), 5 days in Optisol GS, vs diluent-treated mate cornea, 13 or 14 paired corneas
[4] = 10 μM ubiquinol vs diluent-treated mate cornea, 5 days, n = 13
[5] = 10 μM ubiquinol, 5 days in Optisol-GS, n = 13
[6] = Example 13: 10 μM ubiquinol, 5 days in Optisol-GS, N=13, vs controls
[7] = palmitate-BSA treated tissues (100 μM), 5 days, n = 7

ubiquinol
non-mitochondrial respiration ([1]; 1 μM coQ10, among doses 0.5, 1, 5, 7.5 μM): largest increase in non-mitochondrial respiration
mitochondrial spare respiratory capacity ([1]; 1 μM coQ10, tissues in storage (compared with the 10 μM dose)): did not show a bolstering of mitochondrial spare respiratory capacity function
proton leak increased ([1]; 10 μM CoQ10 (ubiquinol), 5 days in Optisol GS at 4° C., vs diluent-treated mate cornea, 13 or 14 paired corneas): 34%
maximal respiration increased [1, 3]: 97%
spare respiratory capacity increased [1, 3]: 133%
ATP Production, Mean Difference: Ubiquinol-Control (95% CI) [1, 4]: −0.0001 (−0.0033, 0.0032)
Basal, Mean Ratio: Ubiquinol/Control (95% CI) [1, 4]: Ratio: 1.12 (0.88, 1.43)
Coupling Efficiency, Mean Difference: Ubiquinol-Control (95% CI) [1, 4]: −0.0655 (−0.1550, 0.0240)
Maximal Respiration, Mean Ratio: Ubiquinol/Control (95% CI) [1, 4]: Ratio: 1.93 (1.31, 2.85)
Non-mitochondrial Respiration, Median Difference: Ubiquinol-Control (95% CI) [1, 4]: 0.000013^# (−0.00255, 0.00123)
Proton Leak, Mean Ratio: Ubiquinol/Control (95% CI) [1, 4]: Ratio: 1.80 (1.01, 3.21)
Spare Respiratory Capacity, Mean Ratio: Ubiquinol/Control (95% CI) [1, 4]: Ratio: 2.74 (1.61, 4.66)
Coupling Efficiency, Mean (SD) [1, 5]: 0.5303 (0.1141)
ATP Production, Mean (SD) [1, 5]: 0.0116 (0.0049)
Maximal Respiration, Mean (SD) [1, 5]: 0.0998 (0.0799)
Non-mitochondrial Respiration, Median [IQR] [1, 5]: 0.00662
Proton Leak, Mean (SD) [1, 5]: 0.0091 (0.0049)
Spare Respiratory Capacity, Mean (SD) [1, 5]: 0.0781 (0.0734)
Basal, Mean (SD) ([1]; 10 μM ubiquinol, 5 days in Optisol-GS, n = 13 matched tissues): 0.0202 (0.0087)
maximal respiration increased [1, 6]: 93%
proton leak increased [1, 6]: 80%
spare respiratory capacity increased [1, 6]: 174%
Basal, Mean (SD) ([1]; palmitate-BSA treated tissues (100 μM), 5 days in Optisol-GS, n = 7 matched tissues): 0.0251 (0.0138)
Coupling Efficiency, Mean (SD) [1, 7]: 0.5376 (0.1891)
ATP Production, Mean (SD) [1, 7]: 0.0155 (0.0090)
Maximal Respiration, Mean (SD) [1, 7]: 0.1102 (0.0309)
Non-mitochondrial Respiration, Median [IQR] [1, 7]: 0.00809
Proton Leak, Mean (SD) [1, 7]: 0.0106 (0.0075)
Spare Respiratory Capacity, Mean (SD) [1, 7]: 0.0833 (0.0212)
oxygen consumption rate (OCR) of CEC ([1]; ubiquinol supplemented vs non-supplemented CEC (FIG. 1)): High OCR; also recorded: increased oxygen consumption rate
ROS inhibition with an increase in concentration ([2]; 10, 50, 100 μM ubiquinol or equivalent): does not result in any significant change in ROS inhibition
ROS levels (DHE fluorescence) with antimycin A (AM) ([2]; 24 h treatment, listed as Free ubiquinol): failed to decrease ROS levels after AM treatment
ROS levels (DHE fluorescence) with antimycin A (AM) ([2]; 24 h treatment, listed as free ubiquinol): unable to inhibit ROS
ROS levels (DHE fluorescence) without ROS induction by AM ([2]; 24 h treatment, no AM): decrease the ROS levels in the cells below the normal levels
